# Laboratory results: patent publication US7507727B2, “Substituted quinobenzoxazine analogs and methods of using thereof” (Cylene Pharmaceuticals, Inc., priority 2003, dated 2009)
# Target: c-Myc template DNA (c-myc quadruplex)
# Assay: Quadruplex binding / stop assay (Taq polymerase arrest, capillary electrophoresis)
# Details: read-out: S DATA; Table 1D, stop assay data
# Excerpt: A high throughput polymerase arrest assay has been developed. The assay comprises contacting a template nucleic acid, often DNA, with a primer, which also is often DNA; contacting the primer/template complex with a compound described herein (also referred to as a “test compound”); contacting the primer/template complex with a polymerase; and separating reaction products. The assay often includes the step of denaturing the primer/template complex mixture and then renaturing the complex, which often is carried out before a test molecule is added to the system. Multiple assays often are carried out using varying concentrations of a test compound, such that an IC50 value can be obtained, for example. The reaction products often include extended primers of different lengths.
# Thus, the reaction mixture often includes at least two reaction products when a test compound interacts with a quadruplex structure in the template, one having a completely extended primer and one having an incompletely extended primer, and these two reaction products are separated. The products may be separated using any convenient separation method, such as mass spectrometry and in one embodiment, capillary electrophoresis.
# In an embodiment, a primer oligonucleotide covalently linked to a fluorescent label is contacted with template DNA. The resulting complex is contacted with a test molecule and then contacted with a polymerase capable of extending the primer. The reaction products then are separated and detected by capillary electrophoresis. A longer primer sequence was used for practicing this embodiment as compared to embodiments where the primer includes no covalently-linked fluorophore or where capillary electrophoresis is not utilized for separation. Deoxynucleotides are added at any stage of the assay before the separation, often when the primer is contacted with the template DNA. The template DNA/primer complex often is denatured (e.g., by increasing the temperature of the system) and then renatured (e.g., by cooling the system) before a test compound is added).
# The mixture was denatured at 95° C. for 5 minutes and, after cooling down to room temperature, was incubated at 37° C. for 15 minutes.
# After cooling down to room temperature, 1 mM KCl and the test compound (various concentrations) were added and the mixture incubated for 15 minutes at room temperature. The primer extension was performed by adding 10 mM KCl and Taq DNA Polymerase (2.5 U/reaction, Promega) and incubating at 70° C. for 30 minutes. The reaction was stopped by adding 1 μl of the reaction mixture to 10 μl Hi-Di Formamide mixed and 0.25 μl LIZ120 size standard. Hi-Di Formamide and LIZ120 size standard were purchased from Applied Biosystems.
# The partially extended quadruplex arrest product was between 61 or 62 bases long and the full-length extended product was 99 bases long. The products were separated and analyzed using capillary electrophoresis. Capillary electrophoresis was performed using an ABI PRISM 3100-Avant Genetic Analyzer.
# Stop Assays. […] A fluorescently labeled primer DNA is then annealed to the 3′ end of the template DNA. A DNA polymerase such as Taq polymerase is then introduced to synthesize a complementary strand of DNA by extending from the fluorescently labeled primer. When the progress of the Taq polymerase is unhindered, it synthesizes a full-length copy of the template.
# These products are visualized by capillary electrophoresis.
row,Structure (SMILES),IC50
1,CN(C)CC(C)(C)CNC(=O)c1cn2c3c(c(NCCN4CCOCC4)c(F)cc3c1=O)Oc1ccccc1-2 [compound 1612],> 15000 nM
2,O=C(c1cn2c3c(c(NCCN4CCOCC4)c(F)cc3c1=O)Oc1ccccc1-2)N1CCC(N2CCCC2)CC1 [compound 1613],> 15000 nM
3,CN1CCN(C(=O)c2cn3c4c(c(NCCN5CCOCC5)c(F)cc4c2=O)Oc2ccccc2-3)CC1 [compound 1614],> 15000 nM
4,CC1(C)CC(NC(=O)c2cn3c4c(c(NCCN5CCOCC5)c(F)cc4c2=O)Oc2ccccc2-3)CC(C)(C)N1 [compound 1615],> 15000 nM
5,CN1CCCC1CCNC(=O)c1cn2c3c(c(N4CCC(N)CC4)c(F)cc3c1=O)Oc1cc3ccccc3cc1-2 (stereo not shown) [compound 1616],1750 nM
6,CN1CCCC1CCNC(=O)c1cn2c3c(c(NCC4CCNC4)c(F)cc3c1=O)Oc1cc3ccccc3cc1-2 (stereo not shown) [compound 1617],375 nM
7,CN1CCCC1CCNC(=O)c1cn2c3c(c(N4C[C@@H](N)[C@H](c5ccccc5)C4)c(F)cc3c1=O)Oc1cc3ccccc3cc1-2 (stereo partly shown) [compound 1618],750 nM
8,NC1CCN(c2c(F)cc3c(=O)c(C(=O)NCCCN4CCOCC4)cn4c3c2Oc2ccccc2-4)C1 (stereo not shown) [compound 1619],> 15000 nM
9,NC1CCN(c2c(F)cc3c(=O)c(C(=O)NCCN4CCOCC4)cn4c3c2Oc2ccccc2-4)C1 (stereo not shown) [compound 1620],> 15000 nM
10,CN1CCN(CCCNC(=O)c2cn3c4c(c(N5CCC(N)C5)c(F)cc4c2=O)Oc2ccccc2-3)CC1 (stereo not shown) [compound 1621],750 nM
11,NC1CCN(C(=O)c2cn3c4c(c(N5CCC(N)C5)c(F)cc4c2=O)Oc2ccccc2-3)C1 (stereo not shown) [compound 1622],> 15000 nM
12,CN1CCCC1CCNC(=O)c1cn2c3c(c(N4CCC(N)C4)c(F)cc3c1=O)Oc1ccccc1-2 (stereo not shown) [compound 1623],> 15000 nM
13,CN(C)CCCCNC(=O)c1cn2c3c(c(N4CCC(N)C4)c(F)cc3c1=O)Oc1ccccc1-2 (stereo not shown) [compound 1624],750 nM
14,CN(C)CC(C)(C)CNC(=O)c1cn2c3c(c(N4CCC(N)C4)c(F)cc3c1=O)Oc1ccccc1-2 (stereo not shown) [compound 1625],> 15000 nM
15,CC1(C)CC(NC(=O)c2cn3c4c(c(N5CCC(N)C5)c(F)cc4c2=O)Oc2ccccc2-3)CC(C)(C)N1 (stereo not shown) [compound 1626],> 15000 nM
16,CC(C)N1CCN(c2c(F)cc3c(=O)c(C(=O)N4CCC(N)C4)cn4c3c2Oc2ccccc2-4)CC1 (stereo not shown) [compound 1627],> 15000 nM
17,CN1CCN(CCCNc2c(F)cc3c(=O)c(C(=O)N4CCC(N)C4)cn4c3c2Oc2ccccc2-4)CC1 (stereo not shown) [compound 1628],> 15000 nM
18,NC1CCN(C(=O)c2cn3c4c(c(NCCN5CCCC5)c(F)cc4c2=O)Oc2ccccc2-3)C1 (stereo not shown) [compound 1629],> 15000 nM
19,NC1CCN(C(=O)c2cn3c4c(c(NCCN5CCOCC5)c(F)cc4c2=O)Oc2ccccc2-3)C1 (stereo not shown) [compound 1630],> 15000 nM
20,CN1CCN(CCCNc2c(F)cc3c(=O)c(C(=O)NCCCCNC(=N)N)cn4c3c2Oc2ccccc2-4)CC1 [compound 1631],> 15000 nM
21,CC(C)(C)OC(=O)NC1CCN(c2c(F)cc3c(=O)c(C(=O)NCCCCNC(=N)N)cn4c3c2Oc2ccccc2-4)C1 (stereo not shown) [compound 1632],> 15000 nM
22,N=C(N)NCCCCNC(=O)c1cn2c3c(c(NCCN4CCCC4)c(F)cc3c1=O)Oc1ccccc1-2 [compound 1633],> 15000 nM
23,N=C(N)NCCCCNC(=O)c1cn2c3c(c(NCCN4CCOCC4)c(F)cc3c1=O)Oc1ccccc1-2 [compound 1634],> 15000 nM

row,Structure (SMILES),IC50
1,NC1CCN(C(=O)c2cn3c4c(c(N5CC6CCCNC6C5)c(F)cc4c2=O)Oc2cc4ccccc4cc2-3)C1 (stereo not shown) [compound 1638],1750 nM
2,CN1CCN(CCCNC(=O)c2cn3c4c(c(N5CC6CCCNC6C5)c(F)cc4c2=O)Oc2cc4ccccc4cc2-3)CC1 (stereo not shown) [compound 1641],750 nM
3,O=C(c1cn2c3c(c(N4CC5CCCNC5C4)c(F)cc3c1=O)Oc1cc3ccccc3cc1-2)N1CCC(N2CCCC2)CC1 (stereo not shown) [compound 1643],> 15000 nM
4,N=C(N)NCCCNC(=O)c1cn2c3c(c(N4CC5CCCNC5C4)c(F)cc3c1=O)Oc1cc3ccccc3cc1-2 (stereo not shown) [compound 1647],1000 nM
5,N=C(N)NCCCCNC(=O)c1cn2c3c(c(N4CC5CCCNC5C4)c(F)cc3c1=O)Oc1cc3ccccc3cc1-2 (stereo not shown) [compound 1648],1000 nM
6,N=C(N)NCCCCNC(=O)c1cn2c3c(c(NCCCN4CCOCC4)c(F)cc3c1=O)Oc1cc3ccccc3cc1-2 [compound 1650],1000 nM
7,N=C(N)NCC1CCCC(CNC(=O)c2cn3c4c(c(NCCCN5CCOCC5)c(F)cc4c2=O)Oc2cc4ccccc4cc2-3)C1 (stereo not shown) [compound 1651],1000 nM
8,CN(C)CC(C)(C)CNC(=O)c1cn2c3c(c(NCCCN4CCOCC4)c(F)cc3c1=O)Oc1cc3ccccc3cc1-2 [compound 1652],1000 nM
9,N=C(N)NCCNC(=O)c1cn2c3c(c(NCCN4CCCC4)c(F)cc3c1=O)Oc1cc3ccccc3cc1-2 [compound 1653],340 nM
10,N=C(N)NCCCNC(=O)c1cn2c3c(c(NCCN4CCCC4)c(F)cc3c1=O)Oc1cc3ccccc3cc1-2 [compound 1654],1000 nM
11,N=C(N)NCCCCNC(=O)c1cn2c3c(c(NCCN4CCCC4)c(F)cc3c1=O)Oc1cc3ccccc3cc1-2 [compound 1655],1000 nM
12,CC(O)CNc1c(F)cc2c(=O)c(C(=O)NCCC3CCCN3C)cn3c2c1Oc1cc2ccccc2cc1-3 (stereo not shown) [compound 1656],1750 nM
13,CN1CCCC1CCNC(=O)c1cn2c3c(c(NCCCCCO)c(F)cc3c1=O)Oc1cc3ccccc3cc1-2 (stereo not shown) [compound 1658],1750 nM
14,CCCCOCCCNc1c(F)cc2c(=O)c(C(=O)NCCC3CCCN3C)cn3c2c1Oc1cc2ccccc2cc1-3 (stereo not shown) [compound 1659],1750 nM
15,CN1CCCC1CCNC(=O)c1cn2c3c(c(NCCCN4CCCC4=O)c(F)cc3c1=O)Oc1cc3ccccc3cc1-2 (stereo not shown) [compound 1660],1800 nM
16,CN1CCCC1CCNC(=O)c1cn2c3c(c(NCCCCO)c(F)cc3c1=O)Oc1cc3ccccc3cc1-2 (stereo not shown) [compound 1661],1750 nM
17,CC(CNc1c(F)cc2c(=O)c(C(=O)NCCC3CCCN3C)cn3c2c1Oc1cc2ccccc2cc1-3)c1ccccc1 (stereo not shown) [compound 1662],1750 nM
18,COc1ccc(CCNc2c(F)cc3c(=O)c(C(=O)NCCC4CCCN4C)cn4c3c2Oc2cc3ccccc3cc2-4)cc1 (stereo not shown) [compound 1663],1750 nM
19,O=C(NCCN1CCCC1)c1cn2c3c(c(N4CCC(c5cnccn5)C4)c(F)cc3c1=O)Oc1cc3ccccc3cc1-2 (stereo not shown) [compound 1664],1120 nM
20,CN1CCCC1CCNC(=O)c1cn2c3c(c(NCCc4c[nH]c5ccccc45)c(F)cc3c1=O)Oc1cc3ccccc3cc1-2 (stereo not shown) [compound 1666],1750 nM
21,COc1ccc2c(CCNc3c(F)cc4c(=O)c(C(=O)NCCC5CCCN5C)cn5c4c3Oc3cc4ccccc4cc3-5)c[nH]c2c1 (stereo not shown) [compound 1667],1750 nM
22,CN1CCCC1CCNC(=O)c1cn2c3c(c(NCC4CC(C)(C)N(O)C4(C)C)c(F)cc3c1=O)Oc1cc3ccccc3cc1-2 (stereo not shown) [compound 1668],375 nM
23,COc1cccc(CCNc2c(F)cc3c(=O)c(C(=O)NCCC4CCCN4C)cn4c3c2Oc2cc3ccccc3cc2-4)c1 (stereo not shown) [compound 1669],1750 nM

row,Structure (SMILES),IC50
1,CN1CCCC1CCNC(=O)c1cn2c3c(c(NCCCn4ccnc4)c(F)cc3c1=O)Oc1cc3ccccc3cc1-2 (stereo not shown) [compound 1670],1000 nM
2,COc1ccc2[nH]cc(CCNc3c(F)cc4c(=O)c(C(=O)NCCC5CCCN5C)cn5c4c3Oc3cc4ccccc4cc3-5)c2c1 (stereo not shown) [compound 1671],1750 nM
3,COc1ccc(OC)c(CCNc2c(F)cc3c(=O)c(C(=O)NCCC4CCCN4C)cn4c3c2Oc2cc3ccccc3cc2-4)c1 (stereo not shown) [compound 1672],1750 nM
4,COc1cccc(CCNc2c(F)cc3c(=O)c(C(=O)NCCC4CCCN4C)cn4c3c2Oc2cc3ccccc3cc2-4)c1OC (stereo not shown) [compound 1673],2500 nM
5,CCOC(CCCNc1c(F)cc2c(=O)c(C(=O)NCCC3CCCN3C)cn3c2c1Oc1cc2ccccc2cc1-3)OCC (stereo not shown) [compound 1674],750 nM
6,CN1CCCC1CCNC(=O)c1cn2c3c(c(NCCCCCCO)c(F)cc3c1=O)Oc1cc3ccccc3cc1-2 (stereo not shown) [compound 1675],> 15000 nM
7,CN1CCCC1CCNC(=O)c1cn2c3c(c(NCC(O)CO)c(F)cc3c1=O)Oc1cc3ccccc3cc1-2 (stereo not shown) [compound 1677],1750 nM
8,CN1CCCC1CCNC(=O)c1cn2c3c(c(NCCCO)c(F)cc3c1=O)Oc1cc3ccccc3cc1-2 (stereo not shown) [compound 1678],1750 nM
9,CCc1ccc(CCNc2c(F)cc3c(=O)c(C(=O)NCCC4CCCN4C)cn4c3c2Oc2cc3ccccc3cc2-4)cc1OC (stereo not shown) [compound 1679],690 nM
10,C[C@@H](O)CNc1c(F)cc2c(=O)c(C(=O)NCCC3CCCN3C)cn3c2c1Oc1cc2ccccc2cc1-3 (stereo partly shown) [compound 1682],750 nM
11,C[C@H](O)CNc1c(F)cc2c(=O)c(C(=O)NCCC3CCCN3C)cn3c2c1Oc1cc2ccccc2cc1-3 (stereo partly shown) [compound 1683],1750 nM
12,COc1ccccc1CCNc1c(F)cc2c(=O)c(C(=O)NCCC3CCCN3C)cn3c2c1Oc1cc2ccccc2cc1-3 (stereo not shown) [compound 1684],> 15000 nM
13,CC1CCCN(CCCNc2c(F)cc3c(=O)c(C(=O)NCCC4CCCN4C)cn4c3c2Oc2cc3ccccc3cc2-4)C1 (stereo not shown) [compound 1685],1750 nM
14,CC1CCCC(C)N1CCCNc1c(F)cc2c(=O)c(C(=O)NCCC3CCCN3C)cn3c2c1Oc1cc2ccccc2cc1-3 (stereo not shown) [compound 1687],1750 nM
15,CN1CCCC1CCNC(=O)c1cn2c3c(c(NCCCNC(=O)OC(C)(C)C)c(F)cc3c1=O)Oc1cc3ccccc3cc1-2 (stereo not shown) [compound 1689],1750 nM
16,CCCCN1CCC(CNc2c(F)cc3c(=O)c(C(=O)NCCC4CCCN4C)cn4c3c2Oc2cc3ccccc3cc2-4)CC1 (stereo not shown) [compound 1691],1000 nM
17,CCCCOCCCNC(=O)c1cn2c3c(c(N4CCC(N)C4)c(F)cc3c1=O)Oc1cc3ccccc3cc1-2 (stereo not shown) [compound 1692],> 15000 nM
18,NC1CCN(c2c(F)cc3c(=O)c(C(=O)NCC4CCCO4)cn4c3c2Oc2cc3ccccc3cc2-4)C1 (stereo not shown) [compound 1693],> 15000 nM
19,NC1CCN(c2c(F)cc3c(=O)c(C(=O)NCCCN4CCCC4=O)cn4c3c2Oc2cc3ccccc3cc2-4)C1 (stereo not shown) [compound 1694],> 15000 nM
20,CC(CNC(=O)c1cn2c3c(c(N4CCC(N)C4)c(F)cc3c1=O)Oc1cc3ccccc3cc1-2)c1ccccc1 (stereo not shown) [compound 1695],> 15000 nM
21,NC1CCN(c2c(F)cc3c(=O)c(C(=O)NCCc4c[nH]c5ccccc45)cn4c3c2Oc2cc3ccccc3cc2-4)C1 (stereo not shown) [compound 1696],> 15000 nM
